# Measurements from US10799595B2, “Pyrrolobenzodiazepine conjugates” (priority 2016, dated 2020).
# pIC50: −log10 of the molar value.
# Assays:
# human tumour cell lines = settings: cited from earlier work; for activity against a range of human tumour cell lines: quoted from REF 2014 impact study
# [1] = system: human tumour xenograft models; settings: quoted from REF 2014 impact study; cited from earlier work
# DU145 = assay: In vitro testing of compound 10, CellTiter-Glo viability, +/- β-glucuronidase, 72 hour assay; format: cell-based; settings: Homo sapiens, DU-145, 72 h
# Procedure: DU145 (2000/well, 72 hour assay) and MDA-MB-361 (5000/well, 144 hour assay) cells were plated in culture medium to tissue culture-treated 96-well plates at a volume of 80 μL per well and allowed to adhere overnight. For warhead dilutions, first a 60× concentration of each dose to be tested was prepared by diluting the test articles in DMSO. The 60× dilutions of warhead were then further diluted to a 5× concentration in either cell culture medium alone or cell culture medium containing 5× β-glucuronidase enzyme (Sigma Cat # G0799-25KU). […] DMSO alone diluted to the culture medium was used as the controls. The treated cells were cultured at 37° C./5% CO2 for 72 to 144 hours (depending on established growth kinetics of each particular cell line). At the end of the assay, CellTiter-Glo® (CTG) Luminescent Viability Assay (Promega) was used to determine relative cytotoxicity. 100 μL of CTG reagent was added to each well, and plates were incubated for 10 minutes at room temperature with gentle shaking, absorbance of each sample was read at 560 nm using an EnVision luminometer (Perkin Elmer). The percent cell viability was calculated by the following formula: (average luminescence of treated samples/average luminescence of control samples)×100.
# (§1) IC50 values were determined using logistic non-linear regression analysis with GraphPad Prism software.
# MDA-MB-361 = assay: In vitro testing of compound 10, CellTiter-Glo viability, +/- β-glucuronidase, 144 hour assay; format: cell-based; settings: Homo sapiens, MDA-MB-361, 144 h
# Procedure: DU145 (2000/well, 72 hour assay) and MDA-MB-361 (5000/well, 144 hour assay) cells were plated in culture medium to tissue culture-treated 96-well plates at a volume of 80 μL per well and allowed to adhere overnight. For warhead dilutions, first a 60× concentration of each dose to be tested was prepared by diluting the test articles in DMSO. The 60× dilutions of warhead were then further diluted to a 5× concentration in either cell culture medium alone or cell culture medium containing 5× β-glucuronidase enzyme (Sigma Cat # G0799-25KU). 20 μL of cell culture medium containing test article+/−enzyme was added to cells in triplicate wells, and the final dose curve ranged from 6.4 nM to 61 pM in a stepwise 1:4 serial dilution series. DMSO alone diluted to the culture medium was used as the controls. […] 100 μL of CTG reagent was added to each well, and plates were incubated for 10 minutes at room temperature with gentle shaking, absorbance of each sample was read at 560 nm using an EnVision luminometer (Perkin Elmer). The percent cell viability was calculated by the following formula: (average luminescence of treated samples/average luminescence of control samples)×100.
# as §1
smiles,measurement,setting,value
C=C1C[C@H]2C=Nc3cc(OCCCCCOc4cc5c(cc4OC)C(=O)N4CC(=C)C[C@H]4C=N5)c(OC)cc3C(=O)N2C1 [SG2057],activity against a range of human tumour cell lines,human tumour cell lines,picomolar/sub-picomolar activity
same,activity in human tumour xenograft models,[1],curative activity
C=C1C[C@H]2C=Nc3cc(OCCCOc4cc5c(cc4OC)C(=O)N4CC(=C)C[C@H]4C=N5)c(OC)cc3C(=O)N2C1 [SG2000],times less cytotoxic than SG2057,human tumour cell lines; see Hartley et al 2012,at least 10 times
C=C1C[C@H]2[C@H](O)N(C(=O)OCc3ccc(NC(=O)[C@H](C)NC(=O)[C@@H](NC(=O)CCOCCOCCOCCOCCOCCOCCOCCOCCNC(=O)CCN4C(=O)C=CC4=O)C(C)C)cc3)c3cc(OCCCOc4cc5c(cc4OC)C(=O)N4CC(=C)C[C@H]4[C@H](O)N5C(=O)OCc4ccc(O[C@@H]5O[C@H](C(=O)O)[C@@H](O)[C@H](O)[C@H]5O)c([N+](=O)[O-])c4)c(OC)cc3C(=O)N2C1 [Compound 10],pIC50,DU145; No glucuronidase,5.16
same,pIC50,DU145; With glucuronidase,6.70
same,pIC50,MDA-MB-361; No glucuronidase,6.11
same,pIC50,MDA-MB-361; With glucuronidase,7.49
COc1ccc(C2=CN3C(=O)c4cc(OC)c(OCCCOc5cc6c(cc5OC)C(=O)N5C=C(c7ccc(OC)cc7)C[C@H]5C=N6)cc4N=C[C@@H]3C2)cc1 [SG2202],activity against a range of human tumour cell lines,human tumour cell lines,picomolar/sub-picomolar activity
same,activity in human tumour xenograft models,[1],curative activity
